Results taken from the NIST ThermoML archive (doi:10.1016/j.fluid.2014.11.009).
Numbers after ± are expanded uncertainties.

How the values were obtained:
[1] = 101 kPa, Liquid; for viscosity: Cone and plate viscometry; for mass density: Vibrating tube method
[2] = xn = mol fraction of the nth substance listed; conditions: 101 kPa, Liquid; for mass density: Vibrating tube method; for viscosity: Cone and plate viscometry

CN(CCO)CCO [N-methyldiethanolamine]
[1]
Conditions	mass density [kg/m3]	viscosity [mPa·s]
303.2 K	–	56.3 ± 3.4
313.2 K	1026.7 ± 2.2	34.44 ± 2.1
323.2 K	1018.9 ± 2.2	22.93 ± 1.4

CN(CCO)CCO [N-methyldiethanolamine] + O
[2]
Conditions	mass density, x1 = 0.0192 [kg/m3]	mass density, x1 = 0.1168 [kg/m3]	viscosity, x1 = 0.0192 [mPa·s]	viscosity, x1 = 0.1168 [mPa·s]
293.2 K	1011.8 ± 2	1043.3 ± 2.2	–	–
298.2 K	1008.9 ± 2	1040.4 ± 2.2	–	–
303.2 K	1005.8 ± 2	1037.3 ± 2.2	1.568 ± 0.095	6.671 ± 0.74
313.2 K	999.7 ± 2	1030.8 ± 2.2	1.178 ± 0.071	4.706 ± 0.62
323.2 K	993.1 ± 2	1024.1 ± 2.2	0.796 ± 0.048	3.057 ± 0.23
333.2 K	983.8 ± 2	1016.9 ± 2.2	0.688 ± 0.042	2.193 ± 0.33
343.2 K	977.9 ± 2	1009.4 ± 2.2	–	1.589 ± 0.1
353.2 K	970.1 ± 1.9	1001.7 ± 2.1	–	1.194
363.2 K	962 ± 1.9	993.5 ± 2.1	–	–

NC(N)=[NH2+].O=S(=O)([O-])C(F)(F)F [guanidinium trifluoromethanesulfonate] + O
[2]
Conditions	mass density, x1 = 0.0202 [kg/m3]	mass density, x1 = 0.2073 [kg/m3]	viscosity, x1 = 0.0018 [mPa·s]	viscosity, x1 = 0.0056 [mPa·s]	viscosity, x1 = 0.0095 [mPa·s]	viscosity, x1 = 0.0137 [mPa·s]	viscosity, x1 = 0.0181 [mPa·s]	viscosity, x1 = 0.0202 [mPa·s]	viscosity, x1 = 0.2073 [mPa·s]
293.2 K	1087.8 ± 2.2	1125 ± 2.4	–	–	–	–	–	–	–
298.2 K	1084 ± 2.2	1120.3 ± 2.4	–	–	–	–	–	–	–
303.2 K	1080.8 ± 2.2	1116.9 ± 2.4	0.7366 ± 0.045	0.7996 ± 0.049	0.8208 ± 0.05	0.8616 ± 0.052	0.9134 ± 0.056	0.9855 ± 0.061	1.361 ± 0.083
313.2 K	1073.9 ± 2.2	1110.6 ± 2.4	0.6512 ± 0.04	0.6757 ± 0.041	0.6976 ± 0.042	0.7326 ± 0.045	0.8268 ± 0.051	0.8374 ± 0.051	1.098 ± 0.067
323.2 K	1067.4 ± 2.1	1103.8 ± 2.4	0.6047 ± 0.037	0.6289 ± 0.038	0.6517 ± 0.04	0.6872 ± 0.042	0.7268 ± 0.044	0.7438 ± 0.045	0.9221 ± 0.056
333.2 K	1059.3 ± 2.1	1097.5 ± 2.3	0.5555 ± 0.034	0.5686 ± 0.035	0.5834 ± 0.036	0.6095 ± 0.037	0.6302 ± 0.038	0.6544 ± 0.04	0.67 ± 0.041
343.2 K	1050.9 ± 2.1	1088.8 ± 2.3	–	–	–	–	–	–	–
353.2 K	1043.2 ± 2.1	1080 ± 2.3	–	–	–	–	–	–	–
363.2 K	1035 ± 2.1	1072.1 ± 2.3	–	–	–	–	–	–	–
